Where “and” joins values, the source holds several entries; their conditions need not be identical. Identical values can stand only once.
Tests used:
CNS cell [1] = test: Growth inhibitory concentration dissolved in DMSO against human CNS cell line at 10E-4 M concentration; type: functional
Colon cell [2] = test: Total growth inhibition of human Colon cell line at 10E-4 M concentration; type: functional; design: unit not given here
NSCLC [3] = test: Total growth inhibition of human NSCLC cell line at 10E-4 M concentration; type: functional
Breast carcinoma cell [4] = test: Total growth inhibition of human Breast cell line at 10E-4 M concentration; type: functional
[5] = system: Panel NCI-60 (60 carcinoma cell lines); test: Total growth inhibition of human MG-MID cell line at 10E-4 M concentration; type: functional
Ovarian carcinoma cell [6] = test: Total growth inhibition of human Ovarian cell line at 10E-4 M concentration; type: functional
Leukemia cell [7] = test: Total growth inhibition of human Leukemia cell line at 10E-4 M concentration; type: functional
Melanoma cell [8] = test: Total growth inhibition of human Melanoma cell line at 10E-4 M concentration; type: functional
Prostate cell [9] = test: Total growth inhibition of human Prostate cell line at 10E-4 M concentration; type: functional
Prostate cell [10] = test: Growth inhibitory concentration dissolved in DMSO against human Prostate cell line at 10E-4 M concentration; type: functional
Ovarian carcinoma cell [11] = test: Growth inhibitory concentration dissolved in DMSO against human Ovarian cell line at 10E-4 M concentration; type: functional
Melanoma cell [12] = test: Growth inhibitory concentration dissolved in DMSO against human Melanoma cell line at 10E-4 M concentration; type: functional
Colon cell [13] = test: Growth inhibitory concentration dissolved in DMSO against human Colon cell line at 10E-4 M concentration; type: functional
NSCLC [14] = test: Growth inhibitory concentration dissolved in DMSO against human NSCLC cell line at 10E-4 M concentration; type: functional; design: unit not given here
Renal cell = test: Growth inhibitory concentration dissolved in DMSO against human Renal cell line at 10E-4 M concentration; type: functional; design: unit not given here
Breast carcinoma cell [15] = test: Growth inhibitory concentration dissolved in DMSO against human Breast cell line at 10E-4 M concentration; type: functional
[16] = system: Panel NCI-60 (60 carcinoma cell lines); test: Growth inhibitory concentration dissolved in DMSO against human MG-MID cell line at 10E-4 M concentration; type: functional
CNS cell [17] = test: Cytotoxic effect dissolved in DMSO against CNS cell line at 10E-4 M concentration; type: functional, Homo sapiens
Colon cell [18] = test: Cytotoxic effect dissolved in DMSO against Colon cell line at 10E-4 M concentration; type: functional, Homo sapiens
NSCLC [19] = test: Cytotoxic effect dissolved in DMSO against NSCLC cell line at 10E-4 M concentration; type: functional, Homo sapiens
[20] = system: Panel NCI-60 (60 carcinoma cell lines); test: Cytotoxic effect dissolved in DMSO against MG-MID cell line at 10E-4 M concentration; type: functional, Homo sapiens
Leukemia cell [21] = test: Cytotoxic effect dissolved in DMSO against Leukemia cell line at 10E-4 M concentration; type: functional, Homo sapiens
Melanoma cell [22] = test: Cytotoxic effect dissolved in DMSO against Melanoma cell line at 10E-4 M concentration; type: functional, Homo sapiens
HT-29 [23] = test: Percentage of Cells after administration of compound dissolved in DMSO (10e-5 M) towards colon adenocarcinoma cell line HT-29 in G2/M Phase after 24 Hours of Treatment [control = 12.8]; type: functional, Homo sapiens
HT-29 [24] = test: Percentage of Cells after administration of compound dissolved in DMSO (10e-6 M) towards colon adenocarcinoma cell line HT-29 in G2/M Phase after 24 Hours of Treatment [control = 12.8]; type: functional, Homo sapiens
HT-29 [25] = test: Percentage of Cells after administration of compound dissolved in DMSO (10e-7M) towards colon adenocarcinoma cell line HT-29 in G2/M Phase after 24 Hours of Treatment [control = 12.8]; type: functional, Homo sapiens
HT-29 [26] = test: Percentage of Cells after administration of compound dissolved in DMSO (10e-8 M) towards colon adenocarcinoma cell line HT-29 in G2/M Phase after 24 Hours of Treatment [control = 12.8]; type: functional, Homo sapiens
HT-29 [27] = test: Percentage of Cells after administration of compound dissolved in DMSO (10e-4 M) towards colon adenocarcinoma cell line HT-29 in G2/M Phase after 24 Hours of Treatment [control = 12.8]; type: functional, Homo sapiens

## Cc1cn2c(/C=C3/C(=O)Nc4ccc(O)cc43)c(C)nc2s1
CNS cell [1]
  pGI50 (-log GI50, M): 5.41
Colon cell [2]
  TGI: 4.35 and 4.5
NSCLC [3]
  TGI: 4.36
Breast carcinoma cell [4]
  TGI: 4.66
[5]
  TGI: 4.44
Ovarian carcinoma cell [6]
  TGI: 4.09
Leukemia cell [7]
  TGI: 5.11
Melanoma cell [8]
  TGI: 4.5
Prostate cell [9]
  TGI: 4.42
Prostate cell [10]
  pGI50 (negative log molar GI50): 5.52
Ovarian carcinoma cell [11]
  pGI50 (negative log of GI50 in M): 5.16
Melanoma cell [12]
  pGI50 (-log molar GI50): 5.41
Colon cell [13]
  pGI50 (negative log of molar GI50): 5.78
NSCLC [14]
  GI50: 5.4
Renal cell
  GI50: 5.3
Breast carcinoma cell [15]
  pGI50 (-log GI50, M): 5.56
[16]
  GI50: 5.48
CNS cell [17]
  LC50: 4.02
Colon cell [18]
  LC50: 4.03
NSCLC [19]
  LC50: 4.02
[20]
  LC50: 4.05
Leukemia cell [21]
  LC50: 4.47
Melanoma cell [22]
  LC50: 4.08
HT-29 [23]
  Activity: 72.7%
HT-29 [24]
  Activity: 13.4%
HT-29 [25]
  Activity: 13.6%
HT-29 [26]
  Activity: 12.2%
HT-29 [27]
  Activity: 75.2%

From ChEMBL document CHEMBL1141167, “Antitumor activity of new substituted 3-(5-imidazo[2,1-b]thiazolylmethylene)-2-indolinones and study of their effect on the cell cycle” (2005)
